Experimental data: article PMC5469811, “Identification of GXXXXG motif in Chrysophsin-1 and its implication in the design of analogs with cell-selective antimicrobial and anti-endotoxin activities” (Scientific Reports, 2017)
Values after ≈ are worked out from the molar mass of the structure shown. Residues, ends and D or L forms follow the SMILES beside them.

Experiments:
[1] = test system: Candida albicans (ATCC 10231); assay: microbe, parasite or virus in culture; type: cell-based; conditions: ATCC 10231, 48 h; read-out: Minimum inhibitory concentration (MIC)
Method: (§1) The anti- fungal activity of peptides was performed according to the standard micro broth dilution technique as per NCCLS guidelines. These plates were incubated in a moist chamber at 35 °C, and an absorbance at 492 nm was recorded on a VersaMax microplate reader after 48 h for C. albicans ATCC 10231 and C. parapsilosis ATCC 22019 and 72 h for C. neoformans.

[2] = test system: Candida parapsilosis (ATCC 22019); assay: microbe, parasite or virus in culture; type: cell-based; conditions: ATCC 22019, 48 h; read-out: Minimum inhibitory concentration (MIC)
Method: as §1

Cryptococcus neoformans = assay: microbe, parasite or virus in culture; type: cell-based; conditions: 72 h; read-out: Minimum inhibitory concentration (MIC)
Method: as §1

S. aureus (ATCC 25923) = type: cell-based, Staphylococcus aureus; conditions: ATCC 25923, 1 h
Method: (§2) E. coli ATCC25922 was grown to 10^6 CFU/ml in fresh MH broth with various divalent and monovalent salts at their physiological concentrations. Serial dilutions of chrysophsin-1 and its variants prepared with the same MH broth were added to the E. coli ATCC 25922 suspensions. The bacteria were incubated at 37 °C in a shaking incubator for 18 h and the MIC values of individual peptides against E. coli ATCC 25922 were determined. Thermal tolerance of Chrysophsin-1 and its variants was checked by incubating the peptides at 4 °C, 60 °C and 90 °C for 1 h prior to MIC determination. The antibacterial activity in presence of serum was carried out by adding a final concentration of 10% fetal bovine serum in the assay diluents containing 0.4% BSA, 0.02% glacial acetic acid. The subsequent steps in both the experiments were consistent with the MIC determination method.

[3] = test system: Sporothrix schenckii (Patient isolates); assay: microbe, parasite or virus in culture; type: cell-based; conditions: 48 h; read-out: Minimum inhibitory concentration (MIC)
E. coli ATCC 25922 [4] = type: cell-based, Escherichia coli; conditions: ATCC 25922, 18 h
Method: as §2

E. coli (ATCC 25922) = type: cell-based, Escherichia coli; conditions: ATCC 25922, 1 h
Method: as §2

E. coli ATCC 25922 [5] = assay: Synergy with conventional antibiotics, checkerboard titration; type: cell-based, Escherichia coli
Method: The checkerboard titration method was followed to check the synergy of peptides with other antibiotics. First, 2-fold serial dilutions of the antibiotics and antimicrobial peptides were prepared. Subsequently, 50 μl each of different concentrations of antibiotics and of antimicrobial peptides was mixed and added into 100 μl of log phase bacteria culture in a 96-well plate. The plates were then incubated at 37 °C for 24 h. The fractional inhibitory concentration (FIC) index (FICI) was calculated as follows[39]: FICI=(MICofdrugAincombination)/(MICofdrugAalone)+(MICofdrugBincombination)/(MICofdrugB): FICI < 0.5 is considered to indicate synergy; 0.5 < FICI < 1.0 is considered additive; 1.0 < FICI < 4.0 is considered indifferent; and FICI > 4.0 is considered antagonism.

[6] = test system: Staphylococcus aureus (ATCC 700698 MRSA); assay: microbe, parasite or virus in culture; type: cell-based; conditions: ATCC 700698; read-out: Minimum inhibitory concentration (MIC)
Method: (§3) Antibacterial assay against various Gram-positive and Gram-negative strains of bacteria was performed by the serial two-fold dilution method according to the previously reported procedure, [36]. The antibacterial assays were repeated thrice and the averages of these MIC values were reported.

[7] = test system: Staphylococcus aureus (ATCC 25923); assay: microbe, parasite or virus in culture; type: cell-based; conditions: ATCC 25923; read-out: Minimum inhibitory concentration (MIC)
Method: as §3

[8] = test system: Pseudomonas aeruginosa (ATCC BAA-427); assay: microbe, parasite or virus in culture; type: cell-based; conditions: ATCC BAA-427; read-out: Minimum inhibitory concentration (MIC)
Method: as §3

[9] = test system: Staphylococcus aureus (BAA-44)MDR; assay: microbe, parasite or virus in culture; type: cell-based; conditions: BAA-44; read-out: Minimum inhibitory concentration (MIC)
Method: as §3

[10] = test system: Escherichia coli (ATCC 9637); assay: microbe, parasite or virus in culture; type: cell-based; conditions: ATCC 9637; read-out: Minimum inhibitory concentration (MIC)
Method: as §3

[11] = test system: Klebsiella pneumoniae (ATCC 27736); assay: microbe, parasite or virus in culture; type: cell-based; conditions: ATCC 27736; read-out: Minimum inhibitory concentration (MIC)
Method: as §3

[12] = test system: Escherichia coli (ATCC 25922); assay: microbe, parasite or virus in culture; type: cell-based; conditions: ATCC 25922; read-out: Minimum inhibitory concentration (MIC)
Method: as §3

[13] = test system: Bacillus subtilis (ATCC 6633); assay: microbe, parasite or virus in culture; type: cell-based; conditions: ATCC 6633; read-out: Minimum inhibitory concentration (MIC)
Method: as §3

[14] = test system: Staphylococcus aureus (ATCC 33592) Methicillin resistant Genatmicin resistant; assay: microbe, parasite or virus in culture; type: cell-based; conditions: ATCC 33592; read-out: Minimum inhibitory concentration (MIC)
Method: as §3

[15] = test system: Staphylococcus aureus (ATCC 700699 MRSA); assay: microbe, parasite or virus in culture; type: cell-based; conditions: ATCC 700699; read-out: Minimum inhibitory concentration (MIC)
Method: as §3

[16] = test system: Staphylococcus aureus (ATCC 29213); assay: microbe, parasite or virus in culture; type: cell-based; conditions: ATCC 29213; read-out: Minimum inhibitory concentration (MIC)
Method: as §3

- MIC [1]: 3 µM (≈ 8.79 µg/mL)
- MIC [2]: 6.8 µM (≈ 19.9 µg/mL)
- MIC (Cryptococcus neoformans): 6.8 µM (≈ 19.9 µg/mL)
- Antibacterial activity (MIC) after incubating peptide at 4 °C (S. aureus (ATCC 25923)): 3 µM
- Antibacterial activity (MIC) after incubating peptide at 60 °C (S. aureus (ATCC 25923)): 4.3 µM
- Antibacterial activity (MIC) after incubating peptide at 90 °C (S. aureus (ATCC 25923)): 8.6 µM
- MIC [3]: 13.6 µM (≈ 39.9 µg/mL)
- Antibacterial activity (MIC) in the presence of 10% FBS (E. coli ATCC 25922 [4]): 8.6 µM
- Antibacterial activity (MIC) in the presence of FeCl3 (E. coli ATCC 25922 [4]): 4.1 µM
- Antibacterial activity (MIC) in the presence of KCl (E. coli ATCC 25922 [4]): 4.3 µM
- Antibacterial activity (MIC) in the presence of MgCl2 (E. coli ATCC 25922 [4]): 4.3 µM
- Antibacterial activity (MIC) in the presence of NH4Cl (E. coli ATCC 25922 [4]): 2.0 µM
- Antibacterial activity (MIC) in the presence of NaCl (E. coli ATCC 25922 [4]): 8.6 µM
- Antibacterial activity (MIC) in the presence of ZnCl2 (E. coli ATCC 25922 [4]): 2 µM
- Antibacterial activity (MIC) after incubating peptide at 4 °C (E. coli (ATCC 25922)): 4.1 µM
- Antibacterial activity (MIC) after incubating peptide at 60 °C (E. coli (ATCC 25922)): 4.3 µM
- Antibacterial activity (MIC) after incubating peptide at 90 °C (E. coli (ATCC 25922)): 8.3 µM
- MIC [6]: 1.6 µM (≈ 4.69 µg/mL)
- MIC [7]: 3 µM (≈ 8.79 µg/mL)
- MIC [8]: 6.8 µM (≈ 19.9 µg/mL)
- MIC [9]: 1.6 µM (≈ 4.69 µg/mL)
- MIC [10]: 3.3 µM (≈ 9.67 µg/mL)
- MIC [11]: 3.3 µM (≈ 9.67 µg/mL)
- MIC [12]: 4.1 µM (≈ 12 µg/mL)
- MIC [13]: 3 µM (≈ 8.79 µg/mL)
- MIC [14]: 0.8 µM (≈ 2.35 µg/mL)
- MIC [15]: 1.6 µM (≈ 4.69 µg/mL)
- MIC [16]: 1.6 µM (≈ 4.69 µg/mL)
SMILES: CC[C@H](C)[C@H](NC(=O)[C@H](C)NC(=O)[C@H](CCCCN)NC(=O)CNC(=O)[C@H](C)NC(=O)[C@H](Cc1c[nH]cn1)NC(=O)[C@@H](NC(=O)[C@H](C)NC(=O)[C@@H]1CCCN1C(=O)[C@H](CCCCN)NC(=O)[C@@H](NC(=O)[C@H](CC(C)C)NC(=O)[C@H](Cc1c[nH]c2ccccc12)NC(=O)CNC(=O)[C@H](Cc1ccccc1)NC(=O)[C@@H](N)Cc1ccccc1)[C@@H](C)CC)[C@@H](C)CC)C(=O)N[C@@H](Cc1c[nH]cn1)C(=O)NCC(=O)N[C@@H](CC(C)C)C(=O)N[C@H](C(=O)N[C@@H](Cc1c[nH]cn1)C(=O)N[C@@H](CCCNC(=N)N)C(=O)N[C@@H](CCCNC(=N)N)C(=O)N[C@@H](CCCNC(=N)N)C(=O)N[C@@H](Cc1c[nH]cn1)C(N)=O)[C@@H](C)CC [Peptide G8P-Chr-1] (H-FFGWLIKPAIHAGKAIHGLIHRRRH-NH2; N-terminus and C-terminus assumed)
- interaction of peptide with chloramphenicol (by FICI) (E. coli ATCC 25922 [5]): synergy (FICI < 0.5 is considered to indicate synergy)
